According to ChEMBL document CHEMBL3217494, “Selective inhibition of EGFR and VEGFR2 tyrosine kinases controlled by a boronic acid substituent on 4-anilinoquinazolines” (Medchemcomm, 2010):
Calls of active or inactive are those of the source. The calls are words filed in the database; no cut-off is given here.

molecular target: T1, Epidermal growth factor receptor (Homo sapiens, UniProt P00533); assay: Inhibition of EGFR in human A431 cells assessed as decrease in EGF-induced ERK phosphorylation at 1 uM by immunoblot analysis; format: cell-based; conditions: A-431
T1 sequence (P00533 whole entry): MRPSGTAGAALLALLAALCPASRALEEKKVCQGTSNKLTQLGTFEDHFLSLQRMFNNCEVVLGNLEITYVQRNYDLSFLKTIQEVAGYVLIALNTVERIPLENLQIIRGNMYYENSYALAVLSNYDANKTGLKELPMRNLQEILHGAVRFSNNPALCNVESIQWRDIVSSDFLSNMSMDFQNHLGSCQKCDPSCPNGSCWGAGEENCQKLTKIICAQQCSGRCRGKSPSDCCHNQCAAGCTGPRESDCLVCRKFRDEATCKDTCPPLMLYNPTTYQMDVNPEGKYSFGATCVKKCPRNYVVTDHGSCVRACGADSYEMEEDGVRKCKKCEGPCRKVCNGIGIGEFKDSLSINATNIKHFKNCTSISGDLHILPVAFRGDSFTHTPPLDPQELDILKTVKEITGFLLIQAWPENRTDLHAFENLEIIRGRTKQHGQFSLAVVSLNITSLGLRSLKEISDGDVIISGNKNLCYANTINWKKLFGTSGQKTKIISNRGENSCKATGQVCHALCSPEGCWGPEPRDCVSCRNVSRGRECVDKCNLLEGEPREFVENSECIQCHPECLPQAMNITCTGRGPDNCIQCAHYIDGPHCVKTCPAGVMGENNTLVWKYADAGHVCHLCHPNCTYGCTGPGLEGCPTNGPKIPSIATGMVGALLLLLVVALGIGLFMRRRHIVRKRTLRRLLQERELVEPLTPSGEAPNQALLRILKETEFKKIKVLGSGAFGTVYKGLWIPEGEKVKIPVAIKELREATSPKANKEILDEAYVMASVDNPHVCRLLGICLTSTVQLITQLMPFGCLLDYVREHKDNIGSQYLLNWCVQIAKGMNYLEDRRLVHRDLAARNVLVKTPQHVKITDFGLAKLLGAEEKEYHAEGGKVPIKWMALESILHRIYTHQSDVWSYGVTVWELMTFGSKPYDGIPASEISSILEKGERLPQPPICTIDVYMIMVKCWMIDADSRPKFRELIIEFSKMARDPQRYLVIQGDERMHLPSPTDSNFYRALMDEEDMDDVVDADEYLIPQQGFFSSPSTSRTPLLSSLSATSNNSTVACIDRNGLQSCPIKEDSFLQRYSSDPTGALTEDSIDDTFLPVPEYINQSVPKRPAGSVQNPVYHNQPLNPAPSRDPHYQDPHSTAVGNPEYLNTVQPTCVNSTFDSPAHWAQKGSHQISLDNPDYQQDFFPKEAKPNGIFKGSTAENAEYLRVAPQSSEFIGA

Row | Structure (SMILES) | inhibition
1 | COc1cc2ncnc(Nc3cccc(Cl)c3)c2cc1B(O)O | Active
2 | COc1cc2ncnc(Nc3ccc(B(O)O)cc3)c2cc1OC | inactive
3 | COCCOc1cc2ncnc(Nc3ccc(B(O)O)cc3)c2cc1OC | inactive
4 | COCCOc1cc2ncnc(Nc3cccc(B(O)O)c3)c2cc1OC | inactive
5 | OB(O)c1ccc2ncnc(Nc3cccc(Cl)c3)c2c1 | Active
6 | COc1cc2ncnc(Nc3cccc(B(O)O)c3)c2cc1OC | inactive
7 | COCCOc1cc2ncnc(Nc3cccc(B(O)O)c3)c2cc1OCCOC | inactive
8 | COCCOc1cc2ncnc(Nc3ccc(B(O)O)cc3)c2cc1OCCOC | inactive
9 | COc1cc2ncnc(Nc3ccc(F)c(Cl)c3)c2cc1B(O)O | Active

More lines, now with the values ahead:

Row | inhibition | Structure (SMILES)
10 | Active | OB(O)c1ccc2ncnc(Nc3ccc(F)c(Cl)c3)c2c1
11 | Active | CC1(C)OB(c2ccc3ncnc(Nc4cccc(Cl)c4)c3c2)OC1(C)C
12 | Active | COc1cc2ncnc(Nc3cccc(Cl)c3)c2cc1B1OC(C)(C)C(C)(C)O1
13 | Active | CC1(C)OB(c2ccc3ncnc(Nc4ccc(F)c(Cl)c4)c3c2)OC1(C)C
14 | Active | COc1cc2ncnc(Nc3ccc(F)c(Cl)c3)c2cc1B1OC(C)(C)C(C)(C)O1

molecular target: T2, Vascular endothelial growth factor receptor 2 (Homo sapiens, UniProt P35968); assay: Inhibition of KDR catalytic domain (unknown origin) assessed as reduction of poly(Glu:Tyr) substrate phosphorylation after 20 mins by ELISA; conditions: not given
T2 sequence (P35968 whole entry, the tested form may be a part): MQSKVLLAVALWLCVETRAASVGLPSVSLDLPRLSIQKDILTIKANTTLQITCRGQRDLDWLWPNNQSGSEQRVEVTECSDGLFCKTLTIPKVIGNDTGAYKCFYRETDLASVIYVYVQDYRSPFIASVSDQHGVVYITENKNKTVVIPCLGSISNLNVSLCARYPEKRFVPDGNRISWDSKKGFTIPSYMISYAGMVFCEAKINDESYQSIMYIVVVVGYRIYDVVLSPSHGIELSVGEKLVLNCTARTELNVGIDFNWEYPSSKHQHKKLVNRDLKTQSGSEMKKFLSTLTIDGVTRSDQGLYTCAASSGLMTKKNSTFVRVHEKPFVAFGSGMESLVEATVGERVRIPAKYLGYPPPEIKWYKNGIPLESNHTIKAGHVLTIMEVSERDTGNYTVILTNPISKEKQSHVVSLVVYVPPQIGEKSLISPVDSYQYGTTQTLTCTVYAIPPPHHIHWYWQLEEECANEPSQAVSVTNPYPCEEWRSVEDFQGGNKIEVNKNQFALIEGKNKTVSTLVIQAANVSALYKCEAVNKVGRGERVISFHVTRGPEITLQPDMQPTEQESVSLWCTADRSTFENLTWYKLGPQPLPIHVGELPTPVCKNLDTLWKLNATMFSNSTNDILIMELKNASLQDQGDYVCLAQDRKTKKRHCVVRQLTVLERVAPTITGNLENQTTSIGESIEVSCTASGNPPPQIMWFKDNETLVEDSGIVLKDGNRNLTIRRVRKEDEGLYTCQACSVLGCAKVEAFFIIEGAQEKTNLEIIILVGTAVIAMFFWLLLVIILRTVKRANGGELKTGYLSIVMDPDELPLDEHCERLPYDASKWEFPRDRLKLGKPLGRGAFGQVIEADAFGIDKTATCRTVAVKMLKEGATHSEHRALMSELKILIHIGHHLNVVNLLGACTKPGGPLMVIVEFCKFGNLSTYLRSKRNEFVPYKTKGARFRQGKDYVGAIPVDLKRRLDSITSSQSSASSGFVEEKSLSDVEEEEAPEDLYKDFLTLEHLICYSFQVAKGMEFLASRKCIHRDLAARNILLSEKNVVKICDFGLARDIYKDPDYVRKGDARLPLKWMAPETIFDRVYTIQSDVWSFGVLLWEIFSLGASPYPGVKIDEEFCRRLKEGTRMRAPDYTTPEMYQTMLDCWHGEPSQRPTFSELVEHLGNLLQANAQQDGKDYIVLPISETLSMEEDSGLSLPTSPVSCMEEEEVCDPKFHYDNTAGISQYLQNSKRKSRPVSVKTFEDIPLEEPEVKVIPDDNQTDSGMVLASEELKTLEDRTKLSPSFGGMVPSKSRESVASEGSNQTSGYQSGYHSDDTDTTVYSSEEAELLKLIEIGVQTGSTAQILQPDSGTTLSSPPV

Row | Structure (SMILES) | IC50 [nM]
15 | COc1cc2ncnc(Nc3cccc(Cl)c3)c2cc1B(O)O | > 1000
16 | COc1cc2ncnc(Nc3ccc(B(O)O)cc3)c2cc1OC | 36
17 | COCCOc1cc2ncnc(Nc3ccc(B(O)O)cc3)c2cc1OC | 860
18 | COCCOc1cc2ncnc(Nc3cccc(B(O)O)c3)c2cc1OC | 180
19 | OB(O)c1ccc2ncnc(Nc3cccc(Cl)c3)c2c1 | > 1000
20 | COc1cc2ncnc(Nc3cccc(B(O)O)c3)c2cc1OC | 390
21 | COCCOc1cc2ncnc(Nc3cccc(B(O)O)c3)c2cc1OCCOC | 190
22 | COCCOc1cc2ncnc(Nc3ccc(B(O)O)cc3)c2cc1OCCOC | 37
23 | COc1cc2ncnc(Nc3ccc(F)c(Cl)c3)c2cc1B(O)O | > 1000

Continued, values first:

Row | IC50 [nM] | Structure (SMILES)
24 | > 1000 | OB(O)c1ccc2ncnc(Nc3ccc(F)c(Cl)c3)c2c1
25 | > 1000 | CC1(C)OB(c2ccc3ncnc(Nc4cccc(Cl)c4)c3c2)OC1(C)C
26 | > 1000 | COc1cc2ncnc(Nc3cccc(Cl)c3)c2cc1B1OC(C)(C)C(C)(C)O1
27 | > 1000 | CC1(C)OB(c2ccc3ncnc(Nc4ccc(F)c(Cl)c4)c3c2)OC1(C)C
28 | > 1000 | COc1cc2ncnc(Nc3ccc(F)c(Cl)c3)c2cc1B1OC(C)(C)C(C)(C)O1

molecular target: T2, Vascular endothelial growth factor receptor 2; assay: Inhibition of VEGF-induced KDR phosphorylation in human HUVEC cells at 1 uM by immunoblot analysis; format: cell-based; conditions: not given

Row | inhibition | Structure (SMILES)
29 | inactive | COc1cc2ncnc(Nc3ccc(B(O)O)cc3)c2cc1OC
30 | Active | COCCOc1cc2ncnc(Nc3ccc(B(O)O)cc3)c2cc1OC
31 | Active | COCCOc1cc2ncnc(Nc3cccc(B(O)O)c3)c2cc1OC
32 | inactive | COc1cc2ncnc(Nc3cccc(B(O)O)c3)c2cc1OC
33 | Active | COCCOc1cc2ncnc(Nc3cccc(B(O)O)c3)c2cc1OCCOC
34 | Active | COCCOc1cc2ncnc(Nc3ccc(B(O)O)cc3)c2cc1OCCOC

molecular target: T1, Epidermal growth factor receptor; assay: Inhibition of EGF-induced EGFR autophosphorylation in human A431 cells at 1 uM by immunoblot analysis; format: cell-based; conditions: A-431

Row | Structure (SMILES) | inhibition
35 | COc1cc2ncnc(Nc3cccc(Cl)c3)c2cc1B(O)O | Active
36 | COc1cc2ncnc(Nc3ccc(B(O)O)cc3)c2cc1OC | inactive
37 | COCCOc1cc2ncnc(Nc3ccc(B(O)O)cc3)c2cc1OC | inactive
38 | COCCOc1cc2ncnc(Nc3cccc(B(O)O)c3)c2cc1OC | inactive
39 | OB(O)c1ccc2ncnc(Nc3cccc(Cl)c3)c2c1 | Active
40 | COc1cc2ncnc(Nc3cccc(B(O)O)c3)c2cc1OC | inactive
41 | COCCOc1cc2ncnc(Nc3cccc(B(O)O)c3)c2cc1OCCOC | inactive
42 | COCCOc1cc2ncnc(Nc3ccc(B(O)O)cc3)c2cc1OCCOC | inactive
43 | COc1cc2ncnc(Nc3ccc(F)c(Cl)c3)c2cc1B(O)O | Active

The remaining lines, values ahead:

Row | inhibition | Structure (SMILES)
44 | Active | OB(O)c1ccc2ncnc(Nc3ccc(F)c(Cl)c3)c2c1
45 | Active | CC1(C)OB(c2ccc3ncnc(Nc4cccc(Cl)c4)c3c2)OC1(C)C
46 | Active | COc1cc2ncnc(Nc3cccc(Cl)c3)c2cc1B1OC(C)(C)C(C)(C)O1
47 | Active | CC1(C)OB(c2ccc3ncnc(Nc4ccc(F)c(Cl)c4)c3c2)OC1(C)C
48 | Active | COc1cc2ncnc(Nc3ccc(F)c(Cl)c3)c2cc1B1OC(C)(C)C(C)(C)O1

molecular target: Receptor tyrosine-protein kinase erbB-2 (Homo sapiens, UniProt P04626); assay: Inhibition of HER2 catalytic domain (unknown origin) assessed as reduction of poly(Glu:Tyr) substrate phosphorylation after 20 mins by ELISA; conditions: not given

Row | Structure (SMILES) | IC50 [nM]
49 | COc1cc2ncnc(Nc3cccc(Cl)c3)c2cc1B(O)O | > 1000
50 | COc1cc2ncnc(Nc3ccc(B(O)O)cc3)c2cc1OC | > 1000
51 | COCCOc1cc2ncnc(Nc3ccc(B(O)O)cc3)c2cc1OC | > 1000
52 | COCCOc1cc2ncnc(Nc3cccc(B(O)O)c3)c2cc1OC | > 1000
53 | OB(O)c1ccc2ncnc(Nc3cccc(Cl)c3)c2c1 | > 1000
54 | O=C(Nc1cccc(C(F)(F)F)c1)c1ccccc1NCc1ccncc1 | > 1000
55 | COc1cc2ncnc(Nc3cccc(B(O)O)c3)c2cc1OC | > 1000
56 | COCCOc1cc2ncnc(Nc3cccc(B(O)O)c3)c2cc1OCCOC | > 1000
57 | COCCOc1cc2ncnc(Nc3ccc(B(O)O)cc3)c2cc1OCCOC | > 1000
58 | COc1cc2ncnc(Nc3ccc(F)c(Cl)c3)c2cc1B(O)O | > 1000

Further lines, results first:

Row | IC50 [nM] | Structure (SMILES)
59 | > 1000 | OB(O)c1ccc2ncnc(Nc3ccc(F)c(Cl)c3)c2c1
60 | > 1000 | CC1(C)OB(c2ccc3ncnc(Nc4cccc(Cl)c4)c3c2)OC1(C)C
61 | > 1000 | COc1cc2ncnc(Nc3cccc(Cl)c3)c2cc1B1OC(C)(C)C(C)(C)O1
62 | > 1000 | CC1(C)OB(c2ccc3ncnc(Nc4ccc(F)c(Cl)c4)c3c2)OC1(C)C
63 | > 1000 | COc1cc2ncnc(Nc3ccc(F)c(Cl)c3)c2cc1B1OC(C)(C)C(C)(C)O1

molecular target: T1, Epidermal growth factor receptor; assay: Inhibition of EGFR in human A431 cells assessed as decrease in EGF-induced Akt phosphorylation at 1 uM by immunoblot analysis; format: cell-based; conditions: A-431

Row | Structure (SMILES) | inhibition
64 | COc1cc2ncnc(Nc3cccc(Cl)c3)c2cc1B(O)O | Active
65 | COc1cc2ncnc(Nc3ccc(B(O)O)cc3)c2cc1OC | inactive
66 | COCCOc1cc2ncnc(Nc3ccc(B(O)O)cc3)c2cc1OC | inactive
67 | COCCOc1cc2ncnc(Nc3cccc(B(O)O)c3)c2cc1OC | inactive
68 | OB(O)c1ccc2ncnc(Nc3cccc(Cl)c3)c2c1 | Active
69 | COc1cc2ncnc(Nc3cccc(B(O)O)c3)c2cc1OC | inactive
70 | COCCOc1cc2ncnc(Nc3cccc(B(O)O)c3)c2cc1OCCOC | inactive
71 | COCCOc1cc2ncnc(Nc3ccc(B(O)O)cc3)c2cc1OCCOC | inactive
72 | COc1cc2ncnc(Nc3ccc(F)c(Cl)c3)c2cc1B(O)O | Active

Second part, the compound after the results:

Row | inhibition | Structure (SMILES)
73 | Active | OB(O)c1ccc2ncnc(Nc3ccc(F)c(Cl)c3)c2c1
74 | Active | CC1(C)OB(c2ccc3ncnc(Nc4cccc(Cl)c4)c3c2)OC1(C)C
75 | Active | COc1cc2ncnc(Nc3cccc(Cl)c3)c2cc1B1OC(C)(C)C(C)(C)O1
76 | Active | CC1(C)OB(c2ccc3ncnc(Nc4ccc(F)c(Cl)c4)c3c2)OC1(C)C
77 | Active | COc1cc2ncnc(Nc3ccc(F)c(Cl)c3)c2cc1B1OC(C)(C)C(C)(C)O1

molecular target: T1, Epidermal growth factor receptor; assay: Inhibition of EGFR catalytic domain (unknown origin) assessed as reduction of poly(Glu:Tyr) substrate phosphorylation after 20 mins by ELISA; conditions: not given

Row | Structure (SMILES) | IC50 [nM]
78 | COc1cc2ncnc(Nc3cccc(Cl)c3)c2cc1B(O)O | 460
79 | COc1cc2ncnc(Nc3ccc(B(O)O)cc3)c2cc1OC | > 1000
80 | COCCOc1cc2ncnc(Nc3ccc(B(O)O)cc3)c2cc1OC | > 1000
81 | COCCOc1cc2ncnc(Nc3cccc(B(O)O)c3)c2cc1OC | > 1000
82 | OB(O)c1ccc2ncnc(Nc3cccc(Cl)c3)c2c1 | 650
83 | COc1cc2ncnc(Nc3cccc(B(O)O)c3)c2cc1OC | > 1000
84 | COCCOc1cc2ncnc(Nc3cccc(B(O)O)c3)c2cc1OCCOC | > 1000
85 | COCCOc1cc2ncnc(Nc3ccc(B(O)O)cc3)c2cc1OCCOC | > 1000
86 | COc1cc2ncnc(Nc3ccc(F)c(Cl)c3)c2cc1B(O)O | 510

Results, then the compound that gave them:

Row | IC50 [nM] | Structure (SMILES)
87 | 800 | OB(O)c1ccc2ncnc(Nc3ccc(F)c(Cl)c3)c2c1
88 | 590 | CC1(C)OB(c2ccc3ncnc(Nc4cccc(Cl)c4)c3c2)OC1(C)C
89 | 490 | COc1cc2ncnc(Nc3cccc(Cl)c3)c2cc1B1OC(C)(C)C(C)(C)O1
90 | 570 | CC1(C)OB(c2ccc3ncnc(Nc4ccc(F)c(Cl)c4)c3c2)OC1(C)C
91 | 520 | COc1cc2ncnc(Nc3ccc(F)c(Cl)c3)c2cc1B1OC(C)(C)C(C)(C)O1

molecular target: Vascular endothelial growth factor receptor 1 (Homo sapiens, UniProt P17948); assay: Inhibition of Flt-1 catalytic domain (unknown origin) assessed as reduction of poly(Glu:Tyr) substrate phosphorylation after 20 mins by ELISA; conditions: not given
Sequence (P17948 whole entry, the tested form may be a part): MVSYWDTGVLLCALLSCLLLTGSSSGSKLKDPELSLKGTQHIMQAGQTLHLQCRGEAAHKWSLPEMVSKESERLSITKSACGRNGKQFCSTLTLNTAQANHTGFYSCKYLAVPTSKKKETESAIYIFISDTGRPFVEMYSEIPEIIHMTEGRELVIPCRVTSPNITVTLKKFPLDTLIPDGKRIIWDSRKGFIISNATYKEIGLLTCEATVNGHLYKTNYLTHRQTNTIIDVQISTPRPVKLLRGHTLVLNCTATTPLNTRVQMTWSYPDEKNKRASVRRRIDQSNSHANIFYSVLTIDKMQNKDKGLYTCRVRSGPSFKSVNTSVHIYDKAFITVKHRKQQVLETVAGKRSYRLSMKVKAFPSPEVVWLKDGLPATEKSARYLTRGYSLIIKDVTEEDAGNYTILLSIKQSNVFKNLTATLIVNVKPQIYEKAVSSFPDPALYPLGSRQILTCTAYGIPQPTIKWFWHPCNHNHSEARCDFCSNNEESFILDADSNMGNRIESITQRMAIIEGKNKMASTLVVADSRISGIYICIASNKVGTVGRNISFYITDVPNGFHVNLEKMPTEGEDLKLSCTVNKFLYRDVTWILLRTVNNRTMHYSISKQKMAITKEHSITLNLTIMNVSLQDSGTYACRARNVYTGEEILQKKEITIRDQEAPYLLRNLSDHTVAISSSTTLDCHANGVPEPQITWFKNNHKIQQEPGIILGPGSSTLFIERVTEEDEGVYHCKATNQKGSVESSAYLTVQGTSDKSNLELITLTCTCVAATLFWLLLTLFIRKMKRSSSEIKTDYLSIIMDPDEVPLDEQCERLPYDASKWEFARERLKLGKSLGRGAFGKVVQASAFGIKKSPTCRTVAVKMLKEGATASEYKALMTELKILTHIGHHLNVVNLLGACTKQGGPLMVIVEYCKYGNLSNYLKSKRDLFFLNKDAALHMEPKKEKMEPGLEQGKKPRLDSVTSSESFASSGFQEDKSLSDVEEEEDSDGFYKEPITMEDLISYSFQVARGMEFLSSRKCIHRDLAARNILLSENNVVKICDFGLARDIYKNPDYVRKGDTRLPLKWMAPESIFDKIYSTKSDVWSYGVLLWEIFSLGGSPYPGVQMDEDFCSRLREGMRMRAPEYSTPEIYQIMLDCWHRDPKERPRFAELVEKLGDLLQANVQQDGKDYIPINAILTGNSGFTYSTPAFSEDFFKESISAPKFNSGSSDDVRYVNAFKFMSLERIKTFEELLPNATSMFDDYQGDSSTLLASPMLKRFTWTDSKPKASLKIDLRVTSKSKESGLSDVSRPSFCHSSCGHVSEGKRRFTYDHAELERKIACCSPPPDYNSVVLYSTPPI

Row | Structure (SMILES) | IC50 [nM]
92 | COc1cc2ncnc(Nc3cccc(Cl)c3)c2cc1B(O)O | > 1000
93 | COc1cc2ncnc(Nc3ccc(B(O)O)cc3)c2cc1OC | > 1000
94 | COCCOc1cc2ncnc(Nc3ccc(B(O)O)cc3)c2cc1OC | > 1000
95 | COCCOc1cc2ncnc(Nc3cccc(B(O)O)c3)c2cc1OC | > 1000
96 | OB(O)c1ccc2ncnc(Nc3cccc(Cl)c3)c2c1 | > 1000
97 | COc1cc2ncnc(Nc3cccc(B(O)O)c3)c2cc1OC | > 1000
98 | COCCOc1cc2ncnc(Nc3cccc(B(O)O)c3)c2cc1OCCOC | > 1000
99 | COCCOc1cc2ncnc(Nc3ccc(B(O)O)cc3)c2cc1OCCOC | > 1000
100 | COc1cc2ncnc(Nc3ccc(F)c(Cl)c3)c2cc1B(O)O | > 1000

Continued, values first:

Row | IC50 [nM] | Structure (SMILES)
101 | > 1000 | OB(O)c1ccc2ncnc(Nc3ccc(F)c(Cl)c3)c2c1
102 | > 1000 | CC1(C)OB(c2ccc3ncnc(Nc4cccc(Cl)c4)c3c2)OC1(C)C
103 | > 1000 | COc1cc2ncnc(Nc3cccc(Cl)c3)c2cc1B1OC(C)(C)C(C)(C)O1
104 | > 1000 | CC1(C)OB(c2ccc3ncnc(Nc4ccc(F)c(Cl)c4)c3c2)OC1(C)C
105 | > 1000 | COc1cc2ncnc(Nc3ccc(F)c(Cl)c3)c2cc1B1OC(C)(C)C(C)(C)O1
